In PubChem BioAssay (NCI):
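How tested: cells in 96-well plates exposed to compound for 48 hours at five concentrations. TGI: concentration producing complete growth inhibition.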

Experiments:
Test in all cases: growth of human tumour cells (NCI), 48 h
NCI-H460 lung = test system: NCI-H460 lung
COLO 205 colon = test system: COLO 205 colon
MOLT-4 leukemia = test system: MOLT-4 leukemia
DLD-1 colon = test system: DLD-1 colon
HCC-2998 colon = test system: HCC-2998 colon
KM20L2 colon = test system: KM20L2 colon
SK-MEL-2 melanoma = test system: SK-MEL-2 melanoma
RXF 393 renal = test system: RXF 393 renal
CCRF-CEM leukemia = test system: CCRF-CEM leukemia
HCT-116 colon = test system: HCT-116 colon
A549 NSCLC = test system: A549 NSCLC
786-0 renal = test system: 786-0 renal
TK-10 renal = test system: TK-10 renal
U251 CNS = test system: U251 CNS
LOX IMVI melanoma = test system: LOX IMVI melanoma
HL-60(TB) leukemia = test system: HL-60(TB) leukemia
HOP-18 NSCLC = test system: HOP-18 NSCLC
NCI-H23 lung = test system: NCI-H23 lung
UO-31 renal = test system: UO-31 renal
SNB-78 CNS = test system: SNB-78 CNS
LXFL 529 NSCLC = test system: LXFL 529 NSCLC
MALME-3M melanoma = test system: MALME-3M melanoma
OVCAR-3 ovarian = test system: OVCAR-3 ovarian
SNB-75 CNS = test system: SNB-75 CNS
EKVX NSCLC = test system: EKVX NSCLC
SW-620 colon = test system: SW-620 colon
SK-OV-3 ovarian = test system: SK-OV-3 ovarian
DMS 273 small cell lung = test system: DMS 273 small cell lung
NCI-H522 lung = test system: NCI-H522 lung
SK-MEL-5 melanoma = test system: SK-MEL-5 melanoma
OVCAR-8 ovarian = test system: OVCAR-8 ovarian
HOP-62 NSCLC = test system: HOP-62 NSCLC
SNB-19 CNS = test system: SNB-19 CNS
ACHN renal = test system: ACHN renal
SN12C renal = test system: SN12C renal
IGROV1 ovarian = test system: IGROV1 ovarian
DMS 114 small cell lung = test system: DMS 114 small cell lung
M19-MEL melanoma = test system: M19-MEL melanoma
KM12 colon = test system: KM12 colon
SR leukemia = test system: SR leukemia
UACC-257 melanoma = test system: UACC-257 melanoma
M14 melanoma = test system: M14 melanoma
UACC-62 melanoma = test system: UACC-62 melanoma
SF-268 CNS = test system: SF-268 CNS
SF-539 CNS = test system: SF-539 CNS
HT29 colon = test system: HT29 colon
K-562 leukemia = test system: K-562 leukemia
XF 498 CNS = test system: XF 498 CNS
RPMI-8226 leukemia = test system: RPMI-8226 leukemia
SK-MEL-28 melanoma = test system: SK-MEL-28 melanoma
SF-295 CNS = test system: SF-295 CNS
CAKI-1 renal = test system: CAKI-1 renal
NCI-H226 lung = test system: NCI-H226 lung
HCT-15 colon = test system: HCT-15 colon
OVCAR-5 ovarian = test system: OVCAR-5 ovarian
HOP-92 NSCLC = test system: HOP-92 NSCLC
A498 renal = test system: A498 renal
OVCAR-4 ovarian = test system: OVCAR-4 ovarian

For `CC1CCC2CC(=O)OC([C@@H]3C(=O)O[C@@H](C4=CCCC4)C4C(C)CCC43)C12` (stereo partly drawn), the TGI (NCI-H460 lung) was greater than 100 µM, the TGI (COLO 205 colon) was greater than 100 µM and the TGI (MOLT-4 leukemia) was greater than 100 µM. It also gave a TGI (DLD-1 colon) greater than 100 µM, a TGI (HCC-2998 colon) greater than 100 µM and a TGI (KM20L2 colon) greater than 100 µM. The TGI (SK-MEL-2 melanoma) was greater than 100 µM, the TGI (RXF 393 renal) was greater than 100 µM and the TGI (CCRF-CEM leukemia) was greater than 100 µM. For the same molecule, the TGI (HCT-116 colon) was greater than 100 µM, the TGI (A549 NSCLC) was greater than 100 µM and the TGI (786-0 renal) was greater than 100 µM. For the same molecule, the TGI (TK-10 renal) was greater than 100 µM, the TGI (U251 CNS) was greater than 100 µM and the TGI (LOX IMVI melanoma) was greater than 100 µM. It also gave a TGI (HL-60(TB) leukemia) of 65.1 µM, a TGI (HOP-18 NSCLC) greater than 100 µM and a TGI (NCI-H23 lung) greater than 100 µM. The TGI (UO-31 renal) was greater than 100 µM, the TGI (SNB-78 CNS) was greater than 100 µM and the TGI (LXFL 529 NSCLC) was greater than 100 µM. For the same molecule, the TGI (MALME-3M melanoma) was greater than 100 µM, the TGI (OVCAR-3 ovarian) was greater than 100 µM and the TGI (SNB-75 CNS) was greater than 100 µM. For the same molecule, the TGI (EKVX NSCLC) was greater than 100 µM, the TGI (SW-620 colon) was greater than 100 µM and the TGI (SK-OV-3 ovarian) was greater than 100 µM. The TGI (DMS 273 small cell lung) was greater than 100 µM, the TGI (NCI-H522 lung) was greater than 100 µM and the TGI (SK-MEL-5 melanoma) was greater than 100 µM. For the same molecule, the TGI (OVCAR-8 ovarian) was greater than 100 µM, the TGI (HOP-62 NSCLC) was greater than 100 µM and the TGI (SNB-19 CNS) was greater than 100 µM. The TGI (ACHN renal) was greater than 100 µM, the TGI (SN12C renal) was greater than 100 µM and the TGI (IGROV1 ovarian) was greater than 100 µM. It also gave a TGI (DMS 114 small cell lung) greater than 100 µM, a TGI (M19-MEL melanoma) greater than 100 µM and a TGI (KM12 colon) greater than 100 µM. The TGI (SR leukemia) was greater than 100 µM, the TGI (UACC-257 melanoma) was greater than 100 µM and the TGI (M14 melanoma) was greater than 100 µM. For the same molecule, the TGI (UACC-62 melanoma) was greater than 100 µM, the TGI (SF-268 CNS) was greater than 100 µM and the TGI (SF-539 CNS) was greater than 100 µM. It also gave a TGI (HT29 colon) greater than 100 µM, a TGI (K-562 leukemia) greater than 100 µM and a TGI (XF 498 CNS) greater than 100 µM. For the same molecule, the TGI (RPMI-8226 leukemia) was greater than 100 µM, the TGI (SK-MEL-28 melanoma) was greater than 100 µM and the TGI (SF-295 CNS) was greater than 100 µM. For the same molecule, the TGI (CAKI-1 renal) was greater than 100 µM, the TGI (NCI-H226 lung) was greater than 100 µM and the TGI (HCT-15 colon) was greater than 100 µM.
With `Cc1nc2c(o1)C(=Nc1ccccc1)c1nc(C)oc1C2=Nc1ccccc1` the TGI (NCI-H460 lung) was greater than 100 µM, the TGI (COLO 205 colon) was greater than 100 µM and the TGI (MOLT-4 leukemia) was 72.6 µM. For the same molecule, the TGI (DLD-1 colon) was 67.9 µM, the TGI (HCC-2998 colon) was 80.3 µM and the TGI (KM20L2 colon) was 70 µM. For the same molecule, the TGI (SK-MEL-2 melanoma) was 72.6 µM, the TGI (RXF 393 renal) was 37.5 µM and the TGI (CCRF-CEM leukemia) was greater than 100 µM. For the same molecule, the TGI (OVCAR-5 ovarian) was 92.4 µM, the TGI (HCT-116 colon) was 37.6 µM and the TGI (A549 NSCLC) was 54.1 µM. For the same molecule, the TGI (786-0 renal) was 34.2 µM, the TGI (TK-10 renal) was greater than 100 µM and the TGI (U251 CNS) was 33.1 µM. It also gave a TGI (LOX IMVI melanoma) of 60.4 µM, a TGI (HL-60(TB) leukemia) greater than 100 µM and a TGI (HOP-18 NSCLC) of 52.9 µM. The TGI (NCI-H23 lung) was 63.7 µM, the TGI (UO-31 renal) was 35.1 µM and the TGI (SNB-78 CNS) was greater than 100 µM. It also gave a TGI (LXFL 529 NSCLC) of 45.1 µM, a TGI (MALME-3M melanoma) of 41.6 µM and a TGI (OVCAR-3 ovarian) greater than 100 µM. It also gave a TGI (SNB-75 CNS) of 28.6 µM, a TGI (SW-620 colon) greater than 100 µM and a TGI (SK-OV-3 ovarian) of 40.4 µM. It also gave a TGI (DMS 273 small cell lung) of 50.5 µM, a TGI (NCI-H522 lung) of 42.7 µM and a TGI (SK-MEL-5 melanoma) of 2.34 µM. The TGI (OVCAR-8 ovarian) was 34.3 µM, the TGI (HOP-62 NSCLC) was 36.3 µM and the TGI (SNB-19 CNS) was 42.5 µM. For the same molecule, the TGI (ACHN renal) was 33.6 µM, the TGI (SN12C renal) was 34.8 µM and the TGI (IGROV1 ovarian) was 52.1 µM. The TGI (DMS 114 small cell lung) was 60.4 µM, the TGI (M19-MEL melanoma) was 47.6 µM and the TGI (HOP-92 NSCLC) was 44.1 µM. It also gave a TGI (SR leukemia) greater than 100 µM, a TGI (UACC-257 melanoma) of 97.6 µM and a TGI (M14 melanoma) greater than 100 µM. It also gave a TGI (UACC-62 melanoma) of 39.4 µM, a TGI (SF-268 CNS) of 47.9 µM and a TGI (SF-539 CNS) of 27.3 µM. It also gave a TGI (HT29 colon) of 45.5 µM, a TGI (K-562 leukemia) greater than 100 µM and a TGI (XF 498 CNS) of 33.2 µM. The TGI (RPMI-8226 leukemia) was greater than 100 µM, the TGI (A498 renal) was 3.01 µM and the TGI (SK-MEL-28 melanoma) was 44.9 µM. It also gave a TGI (SF-295 CNS) of 46.7 µM, a TGI (NCI-H226 lung) of 53.6 µM and a TGI (HCT-15 colon) greater than 100 µM.
Molecule `Clc1cccc(-c2nnc(-c3nn(-c4ccccc4)c4nc5ccccc5nc34)o2)c1` has a TGI (NCI-H460 lung) greater than 100 µM, a TGI (COLO 205 colon) greater than 100 µM and a TGI (MOLT-4 leukemia) greater than 100 µM. The TGI (DLD-1 colon) was greater than 100 µM, the TGI (HCC-2998 colon) was greater than 100 µM and the TGI (KM20L2 colon) was greater than 100 µM. The TGI (SK-MEL-2 melanoma) was greater than 100 µM, the TGI (RXF 393 renal) was greater than 100 µM and the TGI (CCRF-CEM leukemia) was greater than 100 µM. It also gave a TGI (OVCAR-5 ovarian) greater than 100 µM, a TGI (HCT-116 colon) greater than 100 µM and a TGI (A549 NSCLC) greater than 100 µM. It also gave a TGI (786-0 renal) greater than 100 µM, a TGI (TK-10 renal) greater than 100 µM and a TGI (U251 CNS) greater than 100 µM. For the same molecule, the TGI (LOX IMVI melanoma) was greater than 100 µM, the TGI (HL-60(TB) leukemia) was greater than 100 µM and the TGI (HOP-18 NSCLC) was greater than 100 µM. For the same molecule, the TGI (NCI-H23 lung) was greater than 100 µM, the TGI (UO-31 renal) was greater than 100 µM and the TGI (SNB-78 CNS) was greater than 100 µM. The TGI (LXFL 529 NSCLC) was greater than 100 µM, the TGI (MALME-3M melanoma) was greater than 100 µM and the TGI (OVCAR-3 ovarian) was greater than 100 µM. For the same molecule, the TGI (SNB-75 CNS) was greater than 100 µM, the TGI (EKVX NSCLC) was greater than 100 µM and the TGI (SW-620 colon) was greater than 100 µM. The TGI (SK-OV-3 ovarian) was greater than 100 µM, the TGI (OVCAR-4 ovarian) was greater than 100 µM and the TGI (DMS 273 small cell lung) was greater than 100 µM. For the same molecule, the TGI (NCI-H522 lung) was greater than 100 µM, the TGI (SK-MEL-5 melanoma) was greater than 100 µM and the TGI (OVCAR-8 ovarian) was greater than 100 µM. It also gave a TGI (HOP-62 NSCLC) greater than 100 µM, a TGI (SNB-19 CNS) greater than 100 µM and a TGI (ACHN renal) greater than 100 µM. The TGI (SN12C renal) was greater than 100 µM, the TGI (IGROV1 ovarian) was greater than 100 µM and the TGI (DMS 114 small cell lung) was greater than 100 µM. It also gave a TGI (M19-MEL melanoma) greater than 100 µM, a TGI (KM12 colon) greater than 100 µM and a TGI (UACC-257 melanoma) greater than 100 µM. The TGI (M14 melanoma) was greater than 100 µM, the TGI (UACC-62 melanoma) was greater than 100 µM and the TGI (SF-268 CNS) was greater than 100 µM. The TGI (SF-539 CNS) was greater than 100 µM, the TGI (HT29 colon) was greater than 100 µM and the TGI (K-562 leukemia) was greater than 100 µM. It also gave a TGI (XF 498 CNS) greater than 100 µM, a TGI (RPMI-8226 leukemia) greater than 100 µM and a TGI (SK-MEL-28 melanoma) greater than 100 µM. The TGI (SF-295 CNS) was greater than 100 µM, the TGI (CAKI-1 renal) was greater than 100 µM and the TGI (NCI-H226 lung) was greater than 100 µM. For the same molecule, the TGI (HCT-15 colon) was greater than 100 µM.
